Series [1] has as its system HDAC6. Further details: method as in ChEMBL (accessed on May 29th, 2020). Particulars: ChEMBL ligands most similar to compound 13; ref ChEMBL (accessed on May 29th, 2020); cited from earlier work.
The target of series [2] is T1, HDAC6 (Homo sapiens, UniProt Q9UBN7).
T1 sequence (Q9UBN7 1-1215): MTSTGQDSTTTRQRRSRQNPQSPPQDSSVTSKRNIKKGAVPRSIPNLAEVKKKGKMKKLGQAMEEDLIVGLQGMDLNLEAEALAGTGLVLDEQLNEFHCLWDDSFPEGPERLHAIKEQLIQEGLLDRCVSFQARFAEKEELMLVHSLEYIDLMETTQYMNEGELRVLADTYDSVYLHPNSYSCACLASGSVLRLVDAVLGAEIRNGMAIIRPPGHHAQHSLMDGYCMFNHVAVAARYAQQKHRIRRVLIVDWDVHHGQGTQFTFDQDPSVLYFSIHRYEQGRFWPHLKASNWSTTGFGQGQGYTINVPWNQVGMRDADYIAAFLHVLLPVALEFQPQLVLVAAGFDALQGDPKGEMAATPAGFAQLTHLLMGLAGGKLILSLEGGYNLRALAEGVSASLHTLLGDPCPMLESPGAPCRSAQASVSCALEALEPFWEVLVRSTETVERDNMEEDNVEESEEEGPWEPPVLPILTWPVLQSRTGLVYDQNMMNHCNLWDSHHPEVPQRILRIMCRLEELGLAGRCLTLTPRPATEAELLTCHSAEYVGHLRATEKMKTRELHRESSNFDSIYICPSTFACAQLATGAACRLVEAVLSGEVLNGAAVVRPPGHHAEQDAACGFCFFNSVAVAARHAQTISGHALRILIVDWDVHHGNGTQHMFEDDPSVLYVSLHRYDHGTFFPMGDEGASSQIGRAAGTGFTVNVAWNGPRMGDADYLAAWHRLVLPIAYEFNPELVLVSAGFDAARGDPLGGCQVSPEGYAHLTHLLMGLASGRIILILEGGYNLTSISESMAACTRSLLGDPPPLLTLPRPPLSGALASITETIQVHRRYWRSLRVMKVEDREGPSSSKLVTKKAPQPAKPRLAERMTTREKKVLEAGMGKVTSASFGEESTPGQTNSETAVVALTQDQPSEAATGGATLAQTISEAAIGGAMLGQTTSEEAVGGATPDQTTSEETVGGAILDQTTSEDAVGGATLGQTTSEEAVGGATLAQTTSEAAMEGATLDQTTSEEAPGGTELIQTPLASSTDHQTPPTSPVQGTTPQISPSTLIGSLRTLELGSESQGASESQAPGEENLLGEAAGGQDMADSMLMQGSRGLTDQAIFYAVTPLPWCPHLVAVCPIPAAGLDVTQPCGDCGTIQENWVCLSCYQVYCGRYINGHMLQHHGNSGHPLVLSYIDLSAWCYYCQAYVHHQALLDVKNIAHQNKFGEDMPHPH
As to the kind of experiment: In vitro HDAC6 fluorogenic enzymatic assay. In kind it is biochemical. Further details: purchased BPS Bioscience #50076 (Fluorogenic Assay Kit). Particulars: for HDAC6 activity at the highest tested concentration: 300 µM, remaining enzyme activity, called inactive; for IC50: recombinant human HDAC6, dose-response 300 µM to 135 nM.

Series [3] in a line: Storage stability at solid state. The class given is physicochemical. The conditions noted are these: room temperature and −20 °C. The source says:
In a recent study, we described the effect of different linker chemotypes on the potency and selectivity of a series of HDACi carrying a hydroxamate ZBG[6]. […] Being constituted by a small heteroaromatic ring with hydrogen bond acceptor and donor atoms, we hypothesised that the 3-hydroxy-isoxazole moiety could satisfy the pharmacophore requirements necessary for the coordination of the catalytic zinc ion of HDAC6. Therefore, in this work we investigated a series of 3-hydroxy-isoxazole derivatives bearing different aromatic or heteroaromatic linkers and various cap groups.

Series [4] relates to acetylation levels of histone H3 (HDAC1 target) in DU145 cells. As to the kind of experiment: Western blot of histone H3 acetylation in DU145 cells. In kind it is cell-based, human. Particulars: 24 h, 10 µM. As to the method:
(§1) The results corroborate the inhibitory activity of 17, 23, 25 and 27 at concentrations lower than 10 µM. […] HDACs contribution to CRPC is known[20] and the possibility to arrest CRPC proliferation by acting on HDAC targets is expanding in the scientific literature[21]^,[22]. After administration of the selected compounds for 24 h at 10 µM concentration, the effect on the acetylation levels of histone H3 and α-tubulin (respectively, HDAC1 and HDAC6 targets) was investigated. […] Lastly, in the same cell line, the anti-proliferative effect was measured in dose and time dependent manner (Figure S4).
Figure S3. Western blotting analysis of the tested and reference compounds SAHA and Tubastatin A on acetylation levels of histone H3 and α-tubulin in DU145 cells. GAPDH and H4 were used as a loading control. Densitometric values were analyzed using ImageJ Software and are reported on the top of bands as the ratio between loading control and acetylated target.
(1 picture or pasted object on this page, not shown here) […]
1.4 Western blot analysis
The prostate cancer cell line DU145 (ATCC) was grown in RPMI medium (Euroclone, Milan, Italy) with 10% fetal bovine serum (Euroclone), 2 mM L-glutamine (Euroclone), and antibiotics (100 U/mL penicillin, […] streptomycin) (Euroclone). Cells were stimulated with drugs for […]
Total Protein Extraction and western blot
After the induction with the test compounds at the indicated times and concentrations, DU145 cells were then harvested, washed with phosphate-buffered saline (PBS) (Euroclone), and lysed for 15 min at 4 °C in lysis extraction buffer with protease and phosphatase inhibitors (50 mM Tris -HCl pH 8.0, 150 mM NaCl, 1% NP40, 10 mM sodium fluoride, 0.1 mM sodium orthovanadate, […] phenylmethylsulfonyl fluoride 58 (PMSF), 20 g/mL aprotinin, […] leupeptin, […] antipain, 10 mM p -nitrophenyl phosphate, […] pepstatin A and 20 nM okada ic acid). Cells were vortexed then centrifuged at 13000 rpm for 30 min at 4 °C. Bradford assay (Biorad, Italy) was used to quantify protein concentration. […] The immune complexes were first detected with horseradish peroxidase-conjugated species-specific secondary antiserum (Bio-Rad Laboratories, Milan, Italy), and then by an enhanced chemiluminescence reaction (Bio-Rad Laboratories, Milan, Italy). […]
were harvested and washed twice with cold 1× PBS and lysed in Triton extraction buffer (TEB; PBS containing 0.5% Triton X 100 (v/v), 2 mM PMSF, and 0.02% (w/v) NaN3) for 10 min on ice, with gentle stirring. […] The samples were then centrifuged at 2000 rpm for 10 min at 4 °C; the concentration of protein in the supernatant was determined […]
using a Bradford assay (Bio-Rad, CA, USA). […] Semi-quantitative analysis was performed using ImageJ software. […]
(A western blot detects proteins with antibodies after separation by electrophoresis.)

Another series has as its system DU145 cells. The series is described as follows: Anti-proliferative assay (MTT cell viability). The class given is cell-based, human. The conditions noted are these: for effect on proliferation rate of DU145 cells: 50 µM, MTT, 24, 48, 72 h. As to the method: as §1
Figure S4. Cell viability assay (MTT) of the tested compounds in human prostate cancer cell lines (DU145). Cells were treated with 4 increasing concentrations (1, 5, 10, and 50 µM) of tested compounds, monitored at 24, 48, and 72 hours and tested with SAHA and Tubastatin A as reference compounds. Data are expressed as mean ± SEM. […]
1.5 Anti-proliferative assay
Cell viability was determined on DU145 cell line using Thiazolyl Blue Tetrazolium Bromide [3-(4,5-dimethylthiazol-2-yl)-2,5-diphenyltetrazolium bromide] (MTT; Sigma-Aldrich) assay after treatment with new compounds at indicated concentrations. A total of 2 × 10^4 cells/well were plated in a 96-well plate and treated, in duplicates, with new compounds at different concentrations for 24, 48, and 72 hours. Absorbance was read at a wavelength of 570 nm with a TECAN M-200 reader (Tecan, Männedorf, Switzerland).

Series [5] addresses T1, HDAC6. The series is described as follows: HDAC6 assay with acetylated p53 peptide (residues 379–382, RHKKAc-AMC) as substrate. In kind it is biochemical.

Broadly, the IC50 is the point on the concentration scale where inhibition reaches its midpoint. The term melting point denotes the temperature of the solid-liquid transition.

`O=C(NO)C1CCCCC1` [CHEMBL2333345]: the IC50 in the series with HDAC6 [1] was 376 nM.
In the case of `O=C(O)c1cc(-c2ccccc2)on1` [Compound 29, 5-phenylisoxazole-3-carboxylic acid], at HDAC6 [2], the “HDAC6 activity at the highest tested concentration” value (“HDAC6 activity” below) is listed as “more than 55%” and the IC50 was over 300 µM. Besides, on HDAC6 [2] (in vitro assays, Table 1), the “HDAC6 inhibition (in words)” value was “inactive”.
In the case of `O=C(NO)c1ccccc1` [CHEMBL16300], the IC50 with HDAC6 [1] was 115 nM.
Take `O=[N+]([O-])c1ccc(-c2cc(O)no2)cc1` [Compound 18]: the IC50 on HDAC6 [2] is 16.4 µM.
In turn, `O=C(C#Cc1ccccc1)NO` [Compound 12, N-hydroxy-3-phenyl-propiolamide] registered a melting point of 174 to 176 °C. Moreover, the stability on storage result in series [3] is “converted into 13 over time”.
On to `Oc1cc(-c2ccco2)on1` [Compound 26], for which the IC50 on HDAC6 [2] was over 100 µM.
For the compound `Oc1cc(-c2cccc(Br)c2)on1` [Compound 22], at HDAC6 [2], the IC50 was 73.3 µM.
Turning to `Oc1cc(-c2ccc(OCc3ccc(Cl)c(Cl)c3)cc2)on1` [Compound 27], the “effect on acetylation levels of histone H3” value in series [4] is “no effect”. Also, the “effect on proliferation rate of DU145 cells” value with DU145 cells is recorded as “reduced the proliferation rate”. Also, the “anti-proliferative activity at the lowest concentrations” value in the series with DU145 cells (DU145, late phases, lowest concentrations (tested 1, 5, 10, 50 µM)) is given as “exerted anti-proliferative activity”. Also, the IC50 at HDAC6 [2] was found to be 8.2 µM. For the same compound, the “concentration showing inhibitory activity on HDAC6” value on HDAC6 [5] was “below 10 µM”.
`Oc1cc(-c2cccc(C(F)(F)F)c2)on1` [Compound 14]: on HDAC6 [2], the IC50 is over 300 µM.
Turning to `O=C(NO)C1=CCCC1` [CHEMBL2333346], the IC50 in the series on HDAC6 [1] is 30 nM.
Take `CNC(=O)c1ccc(C(=O)NO)cc1` [CHEMBL2333343]: the IC50 with HDAC6 [1] was 28 nM.
In the case of `CNc1ccc(C(=O)NO)cc1` [CHEMBL3415449], the IC50 in the series on HDAC6 [1] was 1770 nM.
For the compound `O=c1cc(-c2ccccc2)o[nH]1` [Compound 13, 3-hydroxy-5-phenyl-isoxazole], the stability on storage result in series [3] is “stable”. For the same compound, the IC50 at HDAC6 [2] amounted to 98.1 µM.
Turning to `Oc1cc(-c2ccccc2Cl)on1` [Compound 15], the IC50 on HDAC6 [2] was over 300 µM.
With `Oc1cc(-c2ccc(Br)cn2)on1` [Compound 28], the IC50 at HDAC6 [2] was determined as 82.3 µM.
Still for that read-out and setting: next, `COc1ccc(-c2cc(O)no2)cc1` [Compound 16]: over 300 µM.
For the compound `O=C(NO)C1=CCCCC1` [CHEMBL2333344], in the series on HDAC6 [1], the IC50 is 12 nM.
Take `Oc1cc(-c2ccc(Br)o2)on1` [Compound 21]: on HDAC6 [2], the IC50 came to 29.6 µM.
As to `Oc1cc(-c2cccc3ccccc23)on1` [Compound 20], at HDAC6 [2], the “HDAC6 activity” value is “more than 55%” and the IC50 is over 300 µM.
On to `Oc1cc(-c2ccc(OCc3ccccc3)cc2)on1` [Compound 17], for which the “effect on acetylation levels of histone H3” value in series [4] was “no effect”. In addition, the “effect on proliferation rate of DU145 cells” value in the series with DU145 cells is recorded as “reduced the proliferation rate”. Further, the IC50 on HDAC6 [2] was found to be 1.3 µM. Besides, the “concentration showing inhibitory activity on HDAC6” value at HDAC6 [5] was “below 10 µM”.
As for `Oc1cc(-c2ccc3ccccc3c2)on1` [Compound 19], on HDAC6 [2], the “HDAC6 activity” value was “more than 55%” and the half-inhibitory concentration (IC50) is over 300 µM.
Turning to `Cc1cccc(C(=O)NO)c1` [CHEMBL2381522], in the series with HDAC6 [1], the IC50 is 650 nM.
Consider `Cc1ccc(-c2cc(O)no2)s1` [Compound 24], for which the IC50 at HDAC6 [2] turned out to be 21.9 µM.
